According to US20150258108A1 (priority 2014, published 2015):
Values joined by “and” are separate entries in the source; they are usually repeats but may differ in a detail not shown here. Equal entries are not always repeated.

What was measured:
[1] = target: T1, human OPRK (κ-opioid receptor) (Homo sapiens, UniProt P41145); assay: biochemical; format: binding; conditions: Ki, OPRK, [3H]-U69,593 binding; This work
T1 construct: purchased PerkinElmer Life Sciences (Boston, Mass.)

[2] = test system: human OPRK (κ-opioid receptor); assay: biochemical; format: binding; conditions: ΔpKi = pKi(OPRK)-pKi(OPRM)
OPRK [3] = target: T2, OPRK (Homo sapiens, UniProt P41145); assay: Activation and inhibition bias quantification G-protein/Beta-arrestin2
Experimental: Coupling efficiency (e-coupling) values indicated the relationship between the apparent binding affinity Ki versus the apparent functional potency EC50 of a given agonist ligand and used the equation pKi-pEC50. […] For inhibitory ligands, e-signal was calculated using maximal level of inhibition (Imax) normalized from 0 (basal, buffer) to 1 (agonist without inhibitor). Bias-coupling (quantification of pathway bias) was evaluated by subtracting the EC50 or the Ke issued from the G-protein pathway assays by those issued from β-arrestin pathway assays for a given ligand and in a linear (nM) scale. Bias-efficacy in favor of the G-protein pathway was evaluated by dividing the functional activation and the functional inhibition maximum responses (e-signal) from the G-protein pathway by the beta-arrestin pathway assays for a given ligand.

human OPRM [4] = target: T3, human OPRM (Homo sapiens, UniProt P35372); assay: cell-based; format: cell-based; design: host or cells: CHO-K1
OPRK [5] = target: T2, OPRK; assay: biochemical; design: purchased PerkinElmer Life Sciences (Boston, Mass.)
[6] = Pharmacokinetics in opioid-dependent patients (Phase IB); conditions: 60, 120, 180 mg cohorts
[7] = Ascending single-dose pharmacokinetics of noribogaine in healthy volunteers; conditions: for CL/F / Tmax: fasted healthy males, mean (SD), n = 6; for mean AUC/24 hr / mean AUC/24: fasting, serum
[8] = Treatment emergent adverse events in opioid-dependent participants (Phase IB)
human OPRM [9] = target: T3, human OPRM; assay: biochemical; format: biochemical; design: expressed in transfected cells; host or cells: CHO-K1 (cell lines provided by Dr. Toll, Torrey Pines Institute)
[10] = 60 mg single dose, opioid-dependent patients, N = 6, events:subjects (%)
[11] = 120 mg single dose, opioid-dependent patients, N = 6, events:subjects (%)
[12] = 180 mg single dose, opioid-dependent patients, N = 6, events:subjects (%)

T2 sequence (P41145 whole entry): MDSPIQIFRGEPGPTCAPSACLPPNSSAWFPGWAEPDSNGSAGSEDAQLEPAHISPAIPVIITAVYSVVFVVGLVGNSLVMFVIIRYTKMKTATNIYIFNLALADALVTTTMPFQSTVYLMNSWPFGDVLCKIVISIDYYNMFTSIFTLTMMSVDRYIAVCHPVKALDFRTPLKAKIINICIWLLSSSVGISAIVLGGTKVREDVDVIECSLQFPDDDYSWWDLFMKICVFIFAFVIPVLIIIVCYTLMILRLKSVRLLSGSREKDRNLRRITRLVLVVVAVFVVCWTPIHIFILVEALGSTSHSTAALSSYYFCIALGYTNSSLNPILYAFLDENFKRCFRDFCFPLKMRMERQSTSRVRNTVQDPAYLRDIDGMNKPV
T3 sequence (P35372 whole entry): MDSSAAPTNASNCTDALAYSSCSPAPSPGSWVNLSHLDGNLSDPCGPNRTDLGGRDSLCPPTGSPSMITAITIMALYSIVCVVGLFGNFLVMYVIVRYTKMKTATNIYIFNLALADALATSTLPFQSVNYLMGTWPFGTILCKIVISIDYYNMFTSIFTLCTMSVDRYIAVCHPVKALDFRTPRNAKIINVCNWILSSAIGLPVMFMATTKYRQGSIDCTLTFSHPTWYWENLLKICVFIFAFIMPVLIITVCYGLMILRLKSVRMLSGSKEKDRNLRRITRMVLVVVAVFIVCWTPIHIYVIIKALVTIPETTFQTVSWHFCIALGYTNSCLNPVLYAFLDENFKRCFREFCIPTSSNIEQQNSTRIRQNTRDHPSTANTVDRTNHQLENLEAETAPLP
T1 sequence (P41145 whole entry): as the sequence (P41145 whole entry) above

CC[C@H]1CC2C[C@H]3c4[nH]c5ccc(O)cc5c4CCN(C2)C13 [Noribogaine]
Ki [1]: 0.72 µM and 0.7 µM
Specificity ΔpKi [2]: 0.4 and 0.3
Bias G-protein/Beta-arrestin2: Bias-coupling (OPRK [3]; Activation): 32
Bias G-protein/Beta-arrestin2: Bias-efficacy (OPRK [3]; Activation): 0.59
Bias G-protein/Beta-arrestin2: Bias-efficacy (OPRK [3]; Inhibition): −0.35
Bias G-protein/Beta-arrestin2: Bias-coupling (OPRK [3]; Inhibition (fold more potent at inhibiting Dynorphin A-induced β-arrestin-2 recruitment than G-protein activation)): 144
EC50 (human OPRM [4]): ~1.15 µM
Efficacy (human OPRM [4]): 3%
IC50 (human OPRM [4]): ~57 µM
Ke (human OPRM [4]): ~4.8 µM
agonism at OPRM β-arrestin-2 recruitment (human OPRM [4]): not an agonist at OPRM
e-coupling (human OPRM [4]): ~1.10
inhibition of agonist response (up to) (human OPRM [4]): 60-100%
Kb (human OPRM [4]; pEC50, pKe): 63.1 µM
Efficacy (Emax) (OPRK [5]): 72%
Efficacy (inhibition) (OPRK [5]): 25%
G-protein Pathway e-coupling (OPRK [5]): 1.72 and 1.08
IC50 (OPRK [5]): 100 to 300 µM
e-coupling (OPRK [5]): 1.08 and 1.22 and 1.72
own reduced signal level to which rival agonists are leveled down (OPRK [5]): 70%
EC50 (OPRK [5]; EC50): 8.75 µM and 8.7 µM
EC50 (OPRK [5]; EC50 (potency)): 8.75 µM and 9 µM
Kb (OPRK [5]; Ke): 15 µM and 24 µM
Kb (OPRK [5]; pEC50, pKe): 12.6 µM and 39.8 µM
Emax (OPRK [5]; read-out: maximal efficacy relative to Dynorphin A): 75%
Maximum serum concentration (Cmax) versus dose [6]: increased in a dose-dependent manner
CL/F ([7]; 3 mg single oral dose): 41.4 (7.0) L/h
CL/F ([7]; 10 mg single oral dose): 42.3 (12.0) L/h
Tmax ([7]; 30 mg noribogaine single oral dose): 1.75 h
CL/F ([7]; 30 mg single oral dose): 46.9 (16.4) L/h
Tmax ([7]; 60 mg noribogaine single oral dose): 1.75 h
CL/F ([7]; 60 mg single oral dose): 34.0 (11.4) L/h
Cmax and AUC versus dose ([7]; 3-60 mg single oral doses): increased linearly with dose
time of peak concentrations after oral noribogaine dosing ([7]; across dose groups, healthy volunteers): 2 to 3 h
Mean half-life ([7]; across dose groups, healthy volunteers, plasma): 28 to 50 h
Vd ([7]; male, human, plasma, oral): 1420 to 3090 L
mean AUC/24 hr ([7]; single dose of 3 mg noribogaine free base): 3.1 ng/mL
mean AUC/24 hr ([7]; single dose of 10 mg noribogaine free base): 10.6 ng/mL
mean AUC/24 ([7]; single dose of 30 mg noribogaine free base): 29.2 ng/mL
mean AUC/24 ([7]; single dose of 60 mg noribogaine free base): 61 ng/mL
TEAE: Catheter Site Infection [8, 10]: 0
TEAE: Catheter Site Pain [8, 10]: 0
TEAE: Catheter Site Related Reaction [8, 10]: 0
TEAE: Cellulitis [8, 10]: 0
TEAE: Diarrhoea [8, 10]: 0
TEAE: Dry Mouth [8, 10]: 0
TEAE: Ear and Labyrinth Disorders [8, 10]: 0
TEAE: Epistaxis [8, 10]: 0
TEAE: Euphoric Mood [8, 10]: 0
TEAE: General Disorders and Administration Site Conditions [8, 10]: 0
TEAE: Hyperaesthesia [8, 10]: 0
TEAE: Infections and Infestations [8, 10]: 0
TEAE: Limb Discomfort [8, 10]: 0
TEAE: Malaise [8, 10]: 0
TEAE: Nausea [8, 10]: 0
TEAE: Oropharyngeal Pain [8, 10]: 0
TEAE: Pseudoparalysis [8, 10]: 0
TEAE: Respiratory, Thoracic and Mediastinal Disorders [8, 10]: 0
TEAE: Rhinorrhoea [8, 10]: 0
TEAE: Skin Discomfort [8, 10]: 0
TEAE: Skin Irritation [8, 10]: 0
TEAE: Skin and Subcutaneous Tissue Disorders [8, 10]: 0
TEAE: Somnoience [8, 10]: 0
TEAE: Tinnitus [8, 10]: 0
TEAE: Tremor [8, 10]: 0
TEAE: Urinary Tract Infection [8, 10]: 0
TEAE: Vomiting [8, 10]: 0
TEAE: Back Pain [8, 11]: 0
TEAE: Catheter Site Infection [8, 11]: 0
TEAE: Catheter Site Related Reaction [8, 11]: 0
TEAE: Depressed Mood [8, 11]: 0
TEAE: Dry Eye [8, 11]: 0
TEAE: Dyspepsia [8, 11]: 0
TEAE: Euphoric Mood [8, 11]: 0
TEAE: Limb Discomfort [8, 11]: 0
TEAE: Malaise [8, 11]: 0
TEAE: Musculoskeletal and Connective Tissue Disorders [8, 11]: 0
TEAE: Psychiatric Disorders [8, 11]: 0
TEAE: Somnoience [8, 11]: 0
TEAE: Urinary Tract Infection [8, 11]: 0
TEAE: Catheter Site Infection [8, 12]: 0
TEAE: Catheter Site Pain [8, 12]: 0
TEAE: Depressed Mood [8, 12]: 0
TEAE: Diarrhoea [8, 12]: 0
TEAE: Dry Eye [8, 12]: 0
TEAE: Dyspepsia [8, 12]: 0
TEAE: Ear and Labyrinth Disorders [8, 12]: 0
TEAE: Epistaxis [8, 12]: 0
TEAE: Euphoric Mood [8, 12]: 0
TEAE: Hyperaesthesia [8, 12]: 0
TEAE: Malaise [8, 12]: 0
TEAE: Oropharyngeal Pain [8, 12]: 0
TEAE: Pseudoparalysis [8, 12]: 0
TEAE: Psychiatric Disorders [8, 12]: 0
TEAE: Respiratory, Thoracic and Mediastinal Disorders [8, 12]: 0
TEAE: Rhinorrhoea [8, 12]: 0
TEAE: Skin Discomfort [8, 12]: 0
TEAE: Skin Irritation [8, 12]: 0
TEAE: Skin and Subcutaneous Tissue Disorders [8, 12]: 0
TEAE: Somnoience [8, 12]: 0
TEAE: Tinnitus [8, 12]: 0
TEAE: Tremor [8, 12]: 0
hallucinatory effects ([8]; 60, 120, 180 mg single dose, opioid-dependent participants): no hallucinatory effects
IC50 (human OPRM [9]): 134 ± 17 µM
Ke (human OPRM [9]): 19 ± 5 µM
Ke (functional inhibition constant) (human OPRM [9]): 19.203 µM
antagonist potency, OPRM G-protein pathway (human OPRM [9]): 20 µM
e-coupling (human OPRM [9]): 1.02 and 1.10
EC50 (human OPRM [9]; EC50): 16.1 µM
Kb (human OPRM [9]; Ke): 28 ± 14 µM
EC50 (human OPRM [9]; approximated EC50): ~16 µM
Kb (human OPRM [9]; pEC50, (Ke): pKe): 20 µM
